The text below walks through data of patent US8765814B2, “N-hydroxyformamide derivative and medicament containing same” (Kaken Pharmaceutical Co., Ltd., priority 2010, dated 2014).

Experiment [1] concerns the target T1, ADAM17 (Homo sapiens, UniProt P78536).
T1 construct: made in house; host or cells: mammal cells or insect cells (not specified which)
Kind of experiment: ADAM17 inhibition test. Type of experiment: biochemical. As to conditions: recombinant ADAM17 (cDNA from THP-1 cells), fluorescent synthetic substrate Nma-[…]Dnp-D-Arg-NH2, 37° C., 1.5 hours; read-out: IC50 Value (50% inhibitory concentration against ADAM17). The source says: The nucleotide sequence of ADAM17 was reported by Moss et al. (Moss, M. L. et al., Nature 1997, 385, 733-736). Accordingly, the cDNA was obtained from THP-1 cells of a human monocytic cell line in the usual way, and this was inserted into an expression vector, and thereafter the vector was transformed in mammal cells or insect cells to thereby make the cells express ADAM17.
In the ADAM17 inhibition test, ADAM17 obtained in the manner as above was used as an enzyme, and a fluorescent synthetic substrate Nma (N-methylanthranylic acid)-[…]Dnp (dinitrophenyl)-D-Arg-NH2 containing the ADAM17-cleaved sequence of a membrane-bound TNF was used as the substrate. Using these in the test, the ADAM17 activity in the presence or absence of the test substance was measured. The method of ADAM17 inhibition test is mentioned below.
(§1) Concretely, 90 μl of an enzyme liquid as prepared to have 14 units in an assay buffer A (50 mM tris-hydrochloride buffer (pH 7.5) containing 200 mM sodium chloride, 5 mM calcium chloride, 10 μM zinc sulfate, 0.004% sodium azide, and 2 mg/mL bovine serum albumin) (the amount of enzyme capable of decomposing 1 pmol of substrate at 25° C. for 1 minute was defined to be 1 unit), and 90 μL a fluorescent synthetic substrate as prepared to be 20 μM in an assay buffer B (50 mM tris-hydrochloride buffer (pH 7.5) containing 200 mM sodium chloride, 5 mM calcium chloride, 10 μM zinc sulfate, 0.004% sodium azide, and 0.05% PLURONIC F-68) were mixed, and reacted at 37° C. for 1.5 hours. Subsequently, using a fluorescent intensity meter (Fluoroskan Ascent), the reaction liquid was analyzed at an excitation wavelength of 355 nm and at a measuring wavelength of 460 nm to determine the enzymatic activity therein.
(§2) From the enzymatic activity in the presence or absence of the test compound, the inhibitory percentage was determined, and the 50% inhibitory concentration (IC50) of the test compound was calculated.
The 50% inhibitory concentration against ADAM17 of the N-hydroxyformamide derivative of the invention, as determined in this test, was shown in Table 1.

Experiment [2] addresses T2, ADAM10 (Homo sapiens, UniProt O14672).
T2 construct: made in house; host or cells: mammal cells or insect cells (not specified which)
T2 sequence (O14672 214-748): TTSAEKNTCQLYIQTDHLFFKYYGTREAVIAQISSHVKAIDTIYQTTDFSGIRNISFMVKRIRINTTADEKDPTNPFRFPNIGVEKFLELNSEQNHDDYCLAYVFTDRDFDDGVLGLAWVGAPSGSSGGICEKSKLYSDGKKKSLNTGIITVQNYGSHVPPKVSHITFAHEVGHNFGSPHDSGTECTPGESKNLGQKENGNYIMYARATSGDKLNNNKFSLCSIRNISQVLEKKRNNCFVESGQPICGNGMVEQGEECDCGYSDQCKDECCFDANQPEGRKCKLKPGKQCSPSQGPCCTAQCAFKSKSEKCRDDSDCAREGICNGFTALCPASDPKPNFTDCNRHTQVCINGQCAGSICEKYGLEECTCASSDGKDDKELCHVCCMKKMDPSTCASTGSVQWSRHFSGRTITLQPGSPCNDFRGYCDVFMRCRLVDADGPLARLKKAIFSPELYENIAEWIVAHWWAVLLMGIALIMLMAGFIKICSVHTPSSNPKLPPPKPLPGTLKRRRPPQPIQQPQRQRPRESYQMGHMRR
Kind of experiment: ADAM10 inhibition test. Type of experiment: biochemical. As to conditions: recombinant ADAM10 (cDNA from THP-1 cells), fluorescent synthetic substrate Nma-[…]Dnp-D-Arg-NH2, 25° C., 5 hours; read-out: IC50 Value (50% inhibitory concentration against ADAM10).
Source text: The cDNA of ADAM10 was obtained from THP-1 cells in the usual way, and this was inserted into an expression vector, and thereafter the vector was transformed in mammal cells or insect cells to thereby make the cells express ADAM10. In the ADAM10 inhibition test, ADAM10 obtained in the manner as above was used as an enzyme, and a fluorescent synthetic substrate Nma (N-methylanthranylic acid)-[…]Dnp (dinitrophenyl)-D-Arg-NH2 was used as the substrate. Using these in the test, the ADAM10 activity in the presence or absence of the test substance was measured. The method of ADAM10 inhibition test is mentioned below.
as §1, with “liquid” for “liquid as”, “using” for “to have 14 units in”, “albumin),” for “albumin) (the amount of enzyme capable of decomposing 1 pmol of substrate at 25° C. for 1 minute was defined to be 1 unit),”, “25°” for “37°”, “5” for “1.5”
as §2
The 50% inhibitory concentration against ADAM10 of the N-hydroxyformamide derivative of the invention, as determined in this test, was shown in Table 2.

T1 sequence (P78536 215-824): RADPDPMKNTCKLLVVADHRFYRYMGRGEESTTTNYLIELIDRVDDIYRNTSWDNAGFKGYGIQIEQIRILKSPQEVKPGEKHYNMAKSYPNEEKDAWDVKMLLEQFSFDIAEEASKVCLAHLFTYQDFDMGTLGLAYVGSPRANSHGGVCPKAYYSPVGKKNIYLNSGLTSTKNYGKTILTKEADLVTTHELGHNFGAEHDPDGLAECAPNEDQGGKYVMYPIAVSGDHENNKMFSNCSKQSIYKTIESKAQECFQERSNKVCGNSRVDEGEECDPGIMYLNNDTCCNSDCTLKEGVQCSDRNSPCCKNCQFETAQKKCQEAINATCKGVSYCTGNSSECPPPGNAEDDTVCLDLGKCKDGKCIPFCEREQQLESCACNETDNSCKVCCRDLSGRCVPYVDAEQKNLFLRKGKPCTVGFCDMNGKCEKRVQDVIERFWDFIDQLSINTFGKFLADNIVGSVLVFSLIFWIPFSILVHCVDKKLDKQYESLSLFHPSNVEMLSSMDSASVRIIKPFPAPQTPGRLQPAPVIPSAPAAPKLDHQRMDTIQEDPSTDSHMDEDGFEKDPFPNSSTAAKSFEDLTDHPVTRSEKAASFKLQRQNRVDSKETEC

Regarding `CC#CCOc1ccc(S(=O)(=O)CC(c2ccc(CNC(=O)COC)cc2)N(O)C=O)cc1` (centres unmarked) [Compound I-3, N-{4-[2-(4-But-2-ynyloxybenzenesulfonyl)-1-(formylhydroxyamino)ethyl]benzyl}-2-methoxyacetamide], the values for the IC50 in experiment [1] and in experiment [2] were 8.2 nM and 42 nM, respectively.

As to `CC#CCOc1ccc(S(=O)(=O)CC(c2ccc(CN3CCOCC3)cc2)N(O)C=O)cc1` (centres unmarked) [Compound I-6, N-[2-(4-But-2-ynyloxybenzenesulfonyl)-1-(4-morpholin-4-ylmethylphenyl)ethyl]-N-hydroxyformamide], the IC50 turned out to be 18 nM in experiment [1] and 70 nM in experiment [2].

As for `CC#CCOc1ccc(S(=O)(=O)CC(c2ccc(CNC(=O)c3ccccc3)cc2)N(O)C=O)cc1` (centres unmarked) [Compound I-5, N-{4-[2-(4-But-2-ynyloxybenzenesulfonyl)-1-(formylhydroxyamino)ethyl]benzyl}benzamide], the IC50 in experiment [1] came out at 7.2 nM; in experiment [2] it was 19 nM.

`CC#CCOc1ccc(S(=O)(=O)CC(c2ccc(CN(CC)CC)cc2)N(O)C=O)cc1` (centres unmarked) [Compound I-1, N-[2-(4-But-2-ynyloxybenzenesulfonyl)-1-(4-diethylaminomethylphenyl)ethyl]-N-hydroxyformamide]: the results for the IC50 in experiment [1] and in experiment [2] were 5.2 nM and 13 nM, respectively.

As to `CC#CCOc1ccc(S(=O)(=O)CC(c2ccc(CN(C)C)cc2)N(O)C=O)cc1` (centres unmarked) [Compound I-2, N-[2-(4-But-2-ynyloxybenzenesulfonyl)-1-(4-dimethylaminomethylphenyl)ethyl]-N-hydroxyformamide], the IC50 was 7.2 nM in experiment [1] and 22 nM in experiment [2].

With `CC#CCOc1ccc(S(=O)(=O)CC(c2ccc(CNS(C)(=O)=O)cc2)N(O)C=O)cc1` (centres unmarked) [Compound I-4, N-{4-[2-(4-But-2-ynyloxybenzenesulfonyl)-1-(formylhydroxyamino)ethyl]benzyl}methanesulfonamide], the IC50 stood at 5.8 nM in experiment [1] and 40 nM in experiment [2].

For the compound `CCC#CCOc1ccc(S(=O)(=O)CC(c2ccc(CN3CCOCC3)cc2)N(O)C=O)cc1` (centres unmarked) [Compound I-7, N-Hydroxy-N-[1-(4-morpholin-4-ylmethylphenyl)-2-(4-pent-2-ynyloxybenzenesulfonyl)ethyl]formamide], the IC50 turned out to be 55 nM in experiment [1] and 90 nM in experiment [2].
